Assay results taken from patent publication US9199941B2, “Pyrazole indanyl carboxamides” (BAYER CROPSCIENCE AG, priority 2012, dated 2015).

Experiments:
[1] = log P by HPLC on reversed phase columns (EEC directive 79/831 Annex V.A8); assay type: physicochemical; details: Table 1, compounds of formula (I); method [a]: LC-MS at pH 2.7, 0.1% formic acid in water / acetonitrile
[2] = tested on: Uromyces appendiculatus; assay: In vivo preventive test on Uromyces appendiculatus (bean rust); details: preventive spray, bean plants, grading 11 days after contamination
Experimental: Bean plants (“Saxa” variety), sown in starter cups on a 50/50 peat soil-pozzolana substrate and grown at 24° C., are treated at the 2-leaf stage (9 cm height) by spraying with the active ingredient prepared as described above. Plants, used as controls, are treated with the mixture of acetone/tween/DMSO/water not containing the active material. After 24 hours, the plants are contaminated by spraying the leaves with an aqueous suspension of Uromyces appendiculatus spores (150 000 spores per ml). […] Grading (% of efficacy) is carried out 11 days after the contamination, in comparison with the control plants.

[3] = tested on: Sphaerotheca fuliginea; assay: In vivo preventive test on Sphaerotheca fuliginea (powdery mildew on cucurbits); details: preventive spray, gherkin plants, grading 12 days after contamination
Experimental: Gherkin plants (“Vert petit de Paris” variety), sown in starter cups on a 50/50 peat soil-pozzolana substrate and grown at 24° C., are treated at the Z11 cotyledon stage by spraying with the active ingredient prepared as described above. Plants, used as controls, are treated with the mixture of acetone/tween/DMSO/water not containing the active material. After 24 hours, the plants are contaminated by spraying the cotyledons with an aqueous suspension of Sphaerotheca fuliginea spores (100 000 spores per ml). The spores are collected from infected plants. The contaminated gherkin plants are incubated at about 20° C. and at 70-80% relative humidity. Grading (% of efficacy) is carried out 12 days after the contamination, in comparison with the control plants.

[4] = tested on: Botrytis cinerea; assay: In vivo preventive test on Botrytis cinerea (grey mould), gherkin; details: preventive spray, gherkin plants, grading 4 to 5 days after contamination
Experimental: Gherkin plants (“Vert petit de Paris” variety), sown in starter cups on a 50/50 peat soil-pozzolana substrate and grown at 24° C., are treated at the Z11 cotyledon stage by spraying with the active ingredient prepared as described above. Plants, used as controls, are treated with the mixture of acetone/tween/DMSO/water not containing the active material. After 24 hours, the plants are contaminated by spraying the cotyledons with an aqueous suspension of cryopreserved Botrytis cinerea spores (50 000 spores per ml). The spores are suspended in a nutrient solution composed of 10 g/L of PDB, 50 g/L of D-Fructose, 2 g/L of NH4NO3 and 1 g/L of KH2PO4. The contaminated gherkin plants are incubated at 17° C. and at 90% relative humidity. Grading (% of efficacy) is carried out 4 to 5 days after the contamination, in comparison with the control plants.

[5] = tested on: Puccinia recondita; assay: In vivo preventive test on Puccinia recondita (brown rust on wheat); details: preventive spray, wheat plants, grading 12 days after contamination
Experimental: Plants, used as controls, are treated with the mixture of acetone/tween/DMSO/water not containing the active material. After 24 hours, the plants are contaminated by spraying the leaves with an aqueous suspension of Puccinia […] spores (100 000 spores per ml). […] Grading (% of efficacy) is carried out 12 days after the contamination, in comparison with the control plants.

[6] = tested on: Septoria tritici; assay: In vivo preventive test on Septoria tritici (leaf spot on wheat); details: 500 ppm, preventive spray, wheat plants, grading 24 days after contamination
Experimental: Wheat plants (“Scipion” variety), sown in starter cups on a 50/50 peat soil-pozzolana substrate and grown at 22° C., are treated at the 1-leaf stage (10 cm height) by spraying with the active ingredient prepared as described above. Plants, used as controls, are treated with the mixture of acetone/tween/DMSO/water not containing the active material. After 24 hours, the plants are contaminated by spraying the leaves with an aqueous suspension of cryopreserved Septoria tritici spores (500 000 spores per ml). […] Grading (% of efficacy) is carried out 24 days after the contamination, in comparison with the control plants.

[7] = tested on: Pyrenophora teres; assay: In vivo preventive test on Pyrenophora teres (net blotch on barley); details: preventive spray, barley plants, incubated 48 hours then 12 days; for Eff. %: 500 ppm; for Efficacy: 100 ppm
Experimental: Barley plants (“Plaisant” variety), sown in starter cups on a 50/50 peat soil-pozzolana substrate and grown at 22° C., are treated at the 1-leaf stage (10 cm height) by spraying with the active ingredient prepared as described above. Plants, used as controls, are treated with the mixture of acetone/tween/DMSO/water not containing the active material. After 24 hours, the plants are contaminated by spraying the leaves with an aqueous suspension of Pyrenophora teres spores (12 000 spores per ml). The spores are collected from a 12-day-old culture.

[8] = tested on: Alternaria brassicae; assay: In vivo preventive test on Alternaria brassicae (leaf spot on radish); details: 500 ppm, preventive spray, radish plants, grading 6 days after contamination
Experimental: Radish plants (“Pernod Clair” variety), sown in starter cups on a 50/50 peat soil-pozzolana substrate and grown at 17° C., are treated at the cotyledon stage by spraying with the active ingredient prepared as described above. Plants, used as controls, are treated with the mixture of acetone/tween/DMSO/water not containing the active material. After 24 hours, the plants are contaminated by spraying the cotyledons with an aqueous suspension of Alternaria brassicae spores (50 000 spores per ml). The spores are collected from a 15-day-old culture. […] Grading (% of efficacy) is carried out 6 days after the contamination, in comparison with the control plants.

[9] = tested on: Phakopsora pachyrhizi; assay: In vivo Phakopsora test (soybeans) / preventive; details: 10 ppm of active ingredient, evaluated 7 days after the inoculation
Experimental: [table] To produce a suitable preparation of active compound, 1 part by weight of active compound is mixed with the stated amounts of solvent and emulsifier, and the concentrate is diluted with water to the desired concentration. To test for preventive activity, young plants are sprayed with the preparation of active compound at the stated rate of application. […] The plants remain in the incubation cabinet at approximately 24° C. and a relative atmospheric humidity of approximately 80% and a day/night interval of 12 h.

For `CC1CC2(CCCCC2)c2cccc(NC(=O)c3cn(C)nc3C(F)F)c21` (stereo not shown) [Example 46], the logP [1] was 4.2[a], the Eff. % ([2]; 100 ppm) was 100% and the Eff. % ([3]; 100 ppm) was 100%. For the same compound, the Eff. % ([4]; 100 ppm) was 75% and the Eff. % ([5]; 100 ppm) was 100%.
With `CCC1(C)CCc2c(NC(=O)c3cn(C)nc3C(F)F)cccc21` (stereo not shown) [Example 24] the logP [1] was 3.62[a], the Eff. % ([2]; 500 ppm) was 97% and the Eff. % ([3]; 500 ppm) was 98%. For the same compound, the Eff. % [6] was 92%, the Eff. % [7] was 80% and the Eff. % ([5]; 500 ppm) was 98%.
`CC1CC2(CC2)c2cccc(NC(=S)c3cn(C)nc3C(F)(F)F)c21` (stereo not shown) [Example 41] gave an Eff. % ([2]; 500 ppm) of 100%, an Eff. % ([3]; 500 ppm) of 98% and an Eff. % ([5]; 500 ppm) of 100%. It also gave an Eff. % [8] of 75%.
In the case of `CCCON=C1CC(C)c2c(NC(=O)c3c(C)nn(C)c3F)cccc21` (stereo not shown) [Example 19], the logP [1] is reported as 3.24[a], the Eff. % ([2]; 500 ppm) is reported as 93% and the Eff. % ([3]; 500 ppm) is reported as 89%. The Eff. % [7] was 75% and the Eff. % ([5]; 500 ppm) was 81%.
In the case of `CC(C)CC1CC(C)c2c(NC(=O)c3cn(C)nc3C(F)F)cccc21` (stereo not shown) [Example 33], the logP [1] is reported as 4.24[a], the Eff. % ([2]; 500 ppm) is reported as 100% and the Eff. % ([3]; 500 ppm) is reported as 100%. The Eff. % [6] was 93%, the Eff. % [7] was 97% and the Eff. % ([5]; 500 ppm) was 98%. It also gave an Eff. % [8] of 97%.
For `CC1CC(CC(C)(C)C)c2cccc(NC(=S)c3cn(C)nc3C(F)F)c21` (stereo not shown) [Example 42], the Eff. % ([2]; 500 ppm) was 100%, the Eff. % ([3]; 500 ppm) was 100% and the Eff. % [6] was 88%. It also gave an Eff. % ([5]; 500 ppm) of 98% and an Eff. % [8] of 75%.
In the case of `CC1CCc2cccc(NC(=O)c3cn(C)nc3C(F)F)c21` (stereo not shown) [Example 9], the logP [1] is reported as 2.78[a], the Eff. % ([2]; 500 ppm) is reported as 100% and the Eff. % [6] is reported as 97%. The Efficacy [7] was “at least 70%”, the Eff. % [7] was 96% and the Eff. % ([5]; 500 ppm) was 100%. It also gave an Eff. % [8] of 92%.
With `Cc1nn(C)c(F)c1C(=O)Nc1cccc2c1C(C)CC2CC(C)C` (stereo not shown) [Example 20] the logP [1] was 4.32[a], the Eff. % ([2]; 500 ppm) was 100% and the Eff. % ([3]; 500 ppm) was 98%. For the same compound, the Eff. % [6] was 79%, the Eff. % [7] was 97% and the Eff. % ([5]; 500 ppm) was 100%. It also gave an Eff. % [8] of 93%.
With `CC1CC(CC(C)(C)C)c2cccc(NC(=O)c3cn(C)nc3C(F)F)c21` (stereo not shown) [Example 18] the logP [1] was 4.44[a], the Eff. % ([2]; 500 ppm) was 100% and the Eff. % ([3]; 500 ppm) was 100%. It also gave an Eff. % [6] of 93%, an Eff. % ([5]; 500 ppm) of 100% and an Eff. % [8] of 83%.
In the case of `CCCON=C1CC(C)c2c(NC(=O)c3cn(C)nc3C(F)F)cccc21` (stereo not shown) [Example 11], the logP [1] is reported as 3.26[a], the Eff. % ([2]; 500 ppm) is reported as 90% and the Eff. % [7] is reported as 83%. It also gave an Eff. % ([5]; 500 ppm) of 81% and an Eff. % [8] of 93%.
For `CC1CC2(CC2)c2cccc(NC(=O)c3cn(C)nc3C(F)F)c21` (stereo not shown) [Example 25], the logP [1] was 3.13[a], the Eff. % ([2]; 500 ppm) was 99% and the Eff. % ([3]; 500 ppm) was 100%. The Eff. % ([4]; 500 ppm) was 88%, the Eff. % [6] was 92% and the Eff. % [7] was 96%. The Eff. % [9] was 94%, the Eff. % ([5]; 500 ppm) was 100% and the Eff. % [8] was 93%.
With `CC1CC(C(C)C)c2cccc(NC(=O)c3cn(C)nc3C(F)F)c21` (stereo not shown) [Example 6] the logP [1] was 3.82[a], the Eff. % ([2]; 500 ppm) was 100% and the Eff. % ([3]; 500 ppm) was 97%. The Eff. % [6] was 92%, the Eff. % [7] was 96% and the Eff. % ([5]; 500 ppm) was 100%. The Eff. % [8] was 100%.
In the case of `CCON=C1CC(C)c2c(NC(=O)c3cn(C)nc3C(F)F)cccc21` (stereo not shown) [Example 34], the logP [1] is reported as 2.78[a], the Eff. % ([2]; 500 ppm) is reported as 97% and the Eff. % [6] is reported as 86%. The Eff. % [7] was 83%, the Eff. % ([5]; 500 ppm) was 81% and the Eff. % [8] was 86%.
In the case of `CC1CC2(CCCCC2)c2cccc(NC(=S)c3cn(C)nc3C(F)F)c21` (stereo not shown) [Example 53], the logP [1] is reported as 4.67[a], the Eff. % ([2]; 100 ppm) is reported as 100% and the Eff. % ([3]; 100 ppm) is reported as 100%. For the same compound, the Eff. % ([4]; 100 ppm) was 82% and the Eff. % ([5]; 100 ppm) was 100%.
For `CC1CC2(CC2)c2cccc(NC(=S)c3cn(C)nc3C(F)F)c21` (stereo not shown) [Example 38], the logP [1] was 4.61[a], the Efficacy [7] was 70% and the Eff. % ([5]; 500 ppm) was 83%. It also gave an Eff. % [8] of 71%.
With `Cn1cc(C(=O)Nc2cccc3c2CCC32OCCO2)c(C(F)F)n1` [Example 12] the logP [1] was 1.9[a], the Eff. % ([5]; 500 ppm) was 83% and the Eff. % [8] was 86%.
In the case of `CC1CC2(CC2)c2cccc(NC(=O)c3cn(C)nc3I)c21` (stereo not shown) [Example 52], the logP [1] is reported as 3.24[a], the Eff. % ([2]; 100 ppm) is reported as 100% and the Eff. % ([3]; 100 ppm) is reported as 88%. The Eff. % ([4]; 100 ppm) was 87% and the Eff. % ([5]; 100 ppm) was 90%.
For `CC1CC2(CC2(Cl)Cl)c2cccc(NC(=O)c3cn(C)nc3C(F)F)c21` (stereo not shown) [Example 3], the logP [1] was 3.46[a], the Eff. % ([2]; 500 ppm) was 100% and the Eff. % ([3]; 500 ppm) was 100%. For the same compound, the Eff. % [6] was 100%, the Eff. % [7] was 81% and the Eff. % ([5]; 500 ppm) was 94%.
For `CON=C1CC(C)c2c(NC(=O)c3c(C)nn(C)c3F)cccc21` (stereo not shown) [Example 27], the logP [1] was 2.33[a], the Eff. % ([5]; 500 ppm) was 86% and the Eff. % [8] was 75%.
For `CC(C)CC1CC(C)c2c(NC(=S)c3cn(C)nc3C(F)F)cccc21` (stereo not shown) [Example 44], the Eff. % ([2]; 500 ppm) was 100%, the Eff. % ([3]; 500 ppm) was 100% and the Eff. % ([4]; 500 ppm) was 73%. For the same compound, the Eff. % [6] was 88%, the Eff. % ([5]; 500 ppm) was 100% and the Eff. % [8] was 95%.
In the case of `CC1CC(C)c2c(NC(=O)c3cn(C)nc3C(F)F)cccc21` (stereo not shown) [Example 8], the logP [1] is reported as 3.21[a], the Eff. % ([2]; 500 ppm) is reported as 100% and the Eff. % ([3]; 500 ppm) is reported as 95%. It also gave an Eff. % ([4]; 500 ppm) of 100%, an Eff. % [6] of 91% and an Eff. % [7] of 88%. It also gave an Eff. % ([5]; 500 ppm) of 100%.
